{"source": "patent US8962523B2", "about": "“Herbicide/safener combination” (Bayer Cropscience AG, priority 2008, dated 2015)", "assay_type_in_all_cases": "in vivo", "key": {"[1]": {"test_system": "Barley (Adonis)", "assay": "Post-emergence herbicidal effect and safener effect, barley", "conditions": "no safener", "description": "(§1) Seeds or rhizome pieces of mono- and dicotyledonous harmful plants and of crop plants are planted in peat pots in sandy loam, covered with earth and grown in a greenhouse under good growth conditions. Alternatively to this, harmful plants occurring in the paddy rice cultivation are cultivated in pots in which water comes to 2 cm above the soil surface. 10 to 20 days after sowing, the test plants are treated in the one to three-leaf stage. The herbicide/safener active ingredient combinations according to the invention, formulated as water-soluble powders or suspensions, and, in parallel experiments, the correspondingly formulated individual active ingredients are sprayed onto the green plant parts in various dosages using an application rate of 300 l of water/ha (converted) and, after the test plants have remained in the greenhouse under optimum growth conditions for 2-3 weeks, the effect of the preparations is scored visually in comparison with untreated controls. In the case of rice or in the case of harmful plants which occur in the rice cultivation, the active ingredients are also placed directly into the irrigation water (application analogous to the so-called granules application) or sprayed onto plants and into the irrigation water."}, "[2]": {"test_system": "Wheat (Triso)", "assay": "Pre-emergence herbicidal effect and safener effect, wheat", "conditions": "herbicide 100 g a.i./ha, no safener, visual scoring vs untreated controls", "source_text": "(§2) Seeds or rhizome pieces of mono- and dicotyledonous weed plants and crop plants were planted in peat pots in sandy loam and covered with earth. The herbicide/safener active ingredient combinations according to the invention, formulated as water-soluble powders or suspensions, and, in parallel experiments, the correspondingly formulated individual active ingredients were then applied to the surface of the covering earth at an application rate of 600 to 800 l of water/ha (converted) in a variety of dosages.\n(§3) After the treatment, the pots were placed in the greenhouse and kept under good growth conditions for the weeds and the crop plants. Visual scoring of the plant damage or emergence damage was carried out after the test plants had emerged after a test period of 2 to 4 weeks, in comparison with untreated controls."}, "[3]": {"test_system": "Wheat (Triso)", "assay": "Post-emergence herbicidal effect and safener effect, wheat", "conditions": "herbicide 50 g a.i./ha, no safener", "description": "as §1"}, "[4]": {"test_system": "Corn (Aventura)", "assay": "Post-emergence herbicidal effect and safener effect, corn", "conditions": "herbicide 100 g a.i./ha, no safener", "description": "as §1"}, "[5]": {"test_system": "Corn (Aventura)", "assay": "Pre-emergence herbicidal effect and safener effect, corn", "conditions": "no safener", "source_text": "as §2, §3"}}}
{"smiles": "COC(=O)c1nc(-c2ccc(Cl)nc2)cc(N)c1Cl", "note": "[I-128, Methyl 4-amino-3-chloro-6-(6-chloro-3-pyridinyl)pyridine-2-carboxylate]", "values": [{"measurement": "% Effect (without safener)", "setting": "[1]; herbicide 25 g a.i./ha", "value": 30, "unit": "%"}, {"measurement": "% Effect (without safener)", "setting": "[1]; herbicide 50 g a.i./ha", "value": 20, "unit": "%"}, {"measurement": "% Effect (without safener)", "setting": "[2]", "value": 50, "unit": "%"}, {"measurement": "% Effect (without safener)", "setting": "[3]", "value": 40, "unit": "%"}, {"measurement": "% Effect (without safener)", "setting": "[4]", "value": 40, "unit": "%"}, {"measurement": "% Effect (without safener)", "setting": "[5]; herbicide 25 g a.i./ha", "value": 50, "unit": "%"}, {"measurement": "% Effect (without safener)", "setting": "[5]; herbicide 50 g a.i./ha", "value": 65, "unit": "%"}]}
